Patent publication US7816374B2, “Method of treating neutrophil-related diseases with topical anesthetics” (Mayo Foundation for Medical Education and Research, priority 2000, dated 2010)
Values joined by “and” are separate entries in the source; they are usually repeats but may differ in a detail not shown here. Equal entries are not always repeated. “Also recorded” adds a separate entry of the source.

Legend:
neutrophils [1] = assay: Neutrophil extracellular superoxide production (cytochrome c reduction plate assay); format: cell-based, human; conditions: for stimulation of neutrophils to release extracellular superoxide: stimulus screen, G-CSF 5 ug/mL, IFN-γ 100 ng/mL, 1 ug/mL, IL-8 0.5, 1 and 10 ng/mL, LTB4 100 nM and 1 uM
Experimental: Neutrophils were purified from heparinized venous blood of normal volunteers by sedimentation through a cushion of 1.085 gm/ml Percoll made in PIPES buffer, pH 7.4, supplemented with 50 mM NaCl, 5 mM KCl, 25 mM NaOH, and 5.4 mM glucose) and centrifuged at 2,000 rmp in a Beckman CS-6KR centrifuge for 30 minutes with no brake. Plasma, mononuclear cells, and Percoll layers were removed and the erythrocytes were lysed by osmotic shock.
The superoxide production was measured using cytochrome c reduction in a plate assay at a concentration of 50,000 neutrophils/well and was done in duplicate.
(§1) Neutrophils were isolated in a Percoll gradient to remove PBMC.
The extracellular superoxide assay (Cytochrome C method) was performed as follows: 1) The wells of a 96-well plate were blocked with 50 ul of 1% HSA for at least 2 hours at 37° C. 2) The Cytochrome C mix (#C-2506, Sigma, St. Louis, Mo.) was prepared as follows: 2.4 mgs of Cytochrome C was resuspended in 1 mL HBSS/HEPES (pH 7.4). One mL of CytoC mix was required for every 0.5×10^6 cells used in the assay. 3) The blocked cells of the 96 well plate were washed twice with 200 μL saline. 4) 4× stimulus and inhibitor stocks were prepared HBSS/HEPES. The cells were resuspended in CytoC mix to 0.5×10^6 cells/mL and kept on ice until ready for use. 5) The final volume in all wells was 200 μL: 100 μl cell/CytoC mix suspension per well (0.05×10^6 cells/well); 50 μL stimulus (if present) per well and 50 μL inhibitor (if present) per well. If stimulus and/or inhibitor was not required for a well, the volume was made up with HBSS/HEPES so that the total volume in the well was 200 μL. 6) Stimuli, inhibitors and cells were added to the wells in the following order: 1) media filler; 2) inhibitors; 3) cells; and 4) stimuli. 7) The 96 well plate was placed in a ThermoMax plate reader and the OD550 was read at 37° C. The plate was read at time 0 and then every 10 minutes for 1 hour, then every 30 minutes for 3 hours. 8) The concentration of superoxide released was calculated by using the following formula to calculate the nmol of Cytochrome C reduced: 19.1*[OD550(time x)−OD550(time 0)]/0.05=nmol Cytochrome C reduced per 1×10^6 cells=nmol superoxide released per 1×10^6 cells.

sputum neutrophilia = assay: Sputum cell counts before and after four weeks of nebulized lidocaine in patients with chronic protracted post-viral or post-irritant cough; format: in vivo, human; design: wbc before / wbc after / eos before / eos after: unit not given here
Experimental: Yamamoto, C. et al., Chest 112:505-510 (1997); Peleman, R. A. et al., Eur. Resp. Journal 13:839-843 (1999); Gibson, P. G. et al., Thorax 44:693-699 (1989). Induction, collection, and processing of sputum is performed according to the method of Pin and Hargreave. Briefly, if the patient is unable to spontaneously produce a 5 cc sputum sample, sputum induction is performed using ultrasonically nebulized hypertonic saline administered in progressive 2 minute increments followed by attempts to cough and produce sputum. The nebulization continues until a total of 12 minutes have elapsed or the patient produces 5 cc of sputum. The initial specimen is collected in a 50 ml conical tube, vortexed and 1 cc of the sputum is aspirated and placed on ice for cytokine analysis. The remaining volume is weighed, and mixed with equal volumes of dithiothreitol, vortexed, then rocked for 15 min at 37° C. with frequent vortexing. The specimen is analyzed for total and differential cell counting.

[2] = Case report of patient with bronchitis treated with lidocaine inhalation; format: in vivo, human
Experimental: The patient was a person first seen in 1996 with a six month history of harsh cough affecting their both during the night and the day. Copious (about 50 ml per day), thick, yellow to white sputum was produced. They were often awakened at night with chest heaviness and dyspnea. […] When initially evaluated, the patient was receiving prednisone, 30 mg every other day, Salmeterol twice daily and Asthmacort four inhalations four times a day.

[3] = Patient with inflammatory bowel disease-associated severe bronchitis treated with nebulized lidocaine; format: in vivo, human; conditions: nebulized lidocaine 100 mg four times daily; within six weeks; one patient
Experimental: A patient with inflammatory bowel disease-associated severe bronchitis who had symptoms of copious sputum production (in excess of 150 mi/day), daily cough and chest tightness, and shortness of breath on exertion, who had not responded to topical or systemic glucocorticoids and multiple rounds of antibiotics over an 18 month period was treated. Lamos, J. et al., Arch Internationales De Pharmacodynamie et de Therapie 331:179-188 (1996).

neutrophils [4] = assay: Lactoferrin release from stimulated neutrophils (ELISA); format: cell-based, human; conditions: FIG. 7
Experimental: as §1
To measure lactoferrin, an ELSIA kit was purchased from Calbiochem (San Diego, Calif.) and the protocols and procedures were followed therein.
When neutrophils begin to invade injured tissue, feedback control of inflammation begins with degranulation of neutrophils and massive release of lactoferrin. The amount of lactoferrin released from neutrophils stimulated with PMA, TNF-α and PAF was measured.

[5] = Serum concentration after lidocaine nebulization (PARI II device); format: in vivo, human; conditions: nebulization of up to 375 mg over 10 minutes; four normal subjects and four asthma patients; >1 μg/ml in only one patient out of eight
From the text: Scott, D. B. et al., Br J Anaesth. 48:899-902 (1976); Chinn, W. M. et al., Chest 71:346-348 (1977).

eosinophils = conditions: in vitro; Okada et al. 1998; cited from earlier work
[6] = cited from earlier work
neutrophils [7] = conditions: in vitro, cited from earlier work
[8] = Clinical trial of nebulized lidocaine in severe asthma; format: in vivo, human; conditions: twenty patients with severe asthma; 100 mg nebulized lidocaine x4 qd
[9] = six patients, after four weeks of nebulized lidocaine

For TNF-α, the “stimulation of neutrophils to release extracellular superoxide” value (neutrophils [1]) was “stimulated; also recorded: considerable superoxide anion is released”.

With `CCCCCCCCCCCCCC(=O)O[C@@H]1[C@@H](C)[C@@]2(O)[C@@H](C=C(CO)C[C@]3(O)C(=O)C(C)=C[C@@H]23)[C@@H]2C(C)(C)[C@]12OC(C)=O` [PMA, phorbol-myristate acetate] the “stimulation of neutrophils to release extracellular superoxide” value (neutrophils [1]) was “stimulated; also recorded: stimulates superoxide anion very considerably”.

For f-met-leu-phe [fMLP], the “stimulation of neutrophils to release extracellular superoxide” value (neutrophils [1]) was “stimulated”.

In the case of IL-8: interleukin 8, the “stimulation of neutrophils to release extracellular superoxide” value (neutrophils [1]) is reported as “did not stimulate”.

With `CCCCC/C=C\C[C@@H](O)/C=C/C=C/C=C\[C@@H](O)CCCC(=O)O` [LTB4, leukotriene B4] the “stimulation of neutrophils to release extracellular superoxide” value (neutrophils [1]) was “did not stimulate”.

For IFN-γ: interferon gamma, the “stimulation of neutrophils to release extracellular superoxide” value (neutrophils [1]) was “did not stimulate”.

For “GM-CSF: granulocyte macrophage colony stimulating factor”, the “stimulation of neutrophils to release extracellular superoxide” value (neutrophils [1]) was “stimulated”.

In the case of `CCN(CC)CC(=O)Nc1c(C)cccc1C` [lidocaine, (2-diethylamino)-N-(2,6-dimethylphenyl)acetamide], the “TNF-α stimulated neutrophil superoxide anion production” value (neutrophils [1]; 3 mM lidocaine, TNF-alpha stimulus, 50,000 neutrophils/well) is reported as “virtually totally suppresses; also recorded: almost totally inhibited”, the “C5a stimulated neutrophil superoxide anion production” value (neutrophils [1]; C5a stimulus, FIGS. 6A and 6B) is reported as “suppresses” and the “stimulation of neutrophils (extracellular superoxide) by stimuli” value (neutrophils [1]; all stimuli with the exception of PMA) is reported as “inhibits the stimulation of neutrophils in a dose dependent manner”. The “PMA induced neutrophil superoxide anion production” value (neutrophils [1]; lidocaine, PMA stimulus) was “does not alter this production; also recorded: not inhibited”, the “superoxide anion production by unstimulated neutrophils” value (neutrophils [1]; presence and absence of 3 mM lidocaine, no stimulus) was “no superoxide anion is produced” and the cough (sputum neutrophilia; [9]) was “clearing of their cough”. The sputum neutrophils (sputum neutrophilia; [9]) was “reduction of sputum neutrophils”, the pmn after (sputum neutrophilia; sputum PMN of individual patients after four weeks of nebulized lidocaine) was 568,400 and 352,000 and 617,760 and 79,900 and 1,612,800 and 551,200 and the pmn before (sputum neutrophilia; sputum PMN of individual patients before lidocaine treatment (baseline)) was 1,032,200 and 3,569,000 and 1,566,000 and 2,772,000 and 4,093,400 and 1,256,250. For the same molecule, the wbc after (sputum neutrophilia; sputum WBC of individual patients after four weeks of nebulized lidocaine) was 1,160,000 and 1,600,000 and 2,808,000 and 85,000 and 4,480,300 and 2,120,000, the wbc before (sputum neutrophilia; sputum WBC of individual patients before lidocaine treatment (baseline)) was 3,330,000 and 6,050,000 and 2,700,000 and 4,760,000 and 2,512,500 and the eos after (sputum neutrophilia; sputum eosinophils of individual patients after four weeks of nebulized lidocaine) was 0 (2×) and 96,000 and 2,808 and 134,400 and 42,500. For the same molecule, the eos before (sputum neutrophilia; sputum eosinophils of individual patients before lidocaine treatment (baseline)) was 0 (3×) and 484,000 and 12,798 and 1,384,200, the “patient-reported course on continued therapy” value ([2]; lidocaine by inhalation for the following year, occasional antibiotics) was “continued improvement” and the “sputum volume and cough” value ([2]; lidocaine by inhalation, over a span of three weeks, one patient) was “diminished strikingly”. The “cough and chest tightness” value [3] was “disappeared”, the sputum volume [3] was “diminished to zero” and the “lactoferrin release in PMA stimulated neutrophils” value (neutrophils [4]; PMA stimulus) was “may have an effect”. The “lactoferrin release in neutrophils stimulated with TNF” value (neutrophils [4]; TNF stimulus) was “significantly inhibits”, the serum concentration [5] was 1500 ng/mL and the “cytokine-stimulated eosinophilopoesis and prolongation of survival, activation, respiratory burst, and degranulation of eosinophils” value (eosinophils) was “inhibit”. For the same molecule, the “systemic glucocorticoid use in steroid-dependent asthma” value ([6]; lidocaine inhalation, most adult and pediatric patients) was “reduces or eliminates systemic glucocorticoids”, the “topical glucocorticoid use in mild to moderate asthma” value ([6]; nebulized lidocaine) was “able to replace topical glucocorticoids” and the “peripheral blood eosinophils when topical glucocorticoids were withdrawn” value ([6]; nebulized lidocaine, mild to moderate asthma) was “prevented the rise”. The “activation of neutrophils by G-CSF, TNF-α and GM-CSF” value (neutrophils [7]) was “inhibits activation”, the “neutrophil aggregation and degranulation” value (neutrophils [7]) was “Inhibition” and the “depolarization of neutrophil membrane potential, superoxide generation and chemiluminescence response in neutrophils” value (neutrophils [7]; concentration-dependent manner) was “inhibits”. The “patients able to discontinue or reduce the use of oral GC by 80%” value [8] was “seventeen” and the side effects [8] was “minimal side effects”.

B1: C5a: component of the complement system (protein, UniProt P01031 678-751, looked up)
C5a anaphylatoxin: TLQKKIEEIAAKYKHSVVKKCCYDGACVNNDETCEQRAARISLGPRCIKAFTECCVVASQLRANISHKDMQLGR
modifications: C5a anaphylatoxin
notes: component of the complement system
With B1 the “stimulation of neutrophils to release extracellular superoxide” value (neutrophils [1]) was “stimulated; also recorded: stimulates superoxide anion production”.

B2: G-CSF: granulocyte colony stimulating factor (protein, UniProt P09919 31-207, looked up)
Granulocyte …: TPLGPASSLPQSFLLKCLEQVRKIQGDGAALQEKLVSECATYKLCHPEELVLLGHSLGIPWAPLSSCPSQALQLAGCLSQLHSGLFLYQGLLQALEGISPELGPTLDTLQLDVADFATTIWQQMEELGMAPALQPTQGAMPAFASAFQRRAGGVLVASHLQSFLEVSYRVLRHLAQP
For B2, the “stimulation of neutrophils to release extracellular superoxide” value (neutrophils [1]) was “did not stimulate”.
